The test system of test [1] is STAT3. As to the kind of experiment: STAT3 activation assay 2 (pSTAT3-TA-Luc luciferase reporter). The format is cell-based, mouse. The conditions noted are these: D3ES cells, agent 0.4 to 40 μg/mL or ESGRO 10 to 10,000 unit/mL, 6 to 24 hours, FIG. 12. As to the method:
For the D3ES cells prepared by the method described in (3) preparation of the ES cell of Example 1, 1×10^5 cells were seeded on a 24-well cell culture dish (Falcon, Cat. No. 3047, USA) coated previously with a 0.1% aqueous gelatin solution to make the ES cell medium in 500 μL per 1 well followed by culturing at 37° C. in 5% CO2 incubator for 12 hours to 24 hours. Next, by using LipofectAMINE 2000 (Invitrogen Corp. made, USA) by a protocol attached to the product, 0.9 μg/well of pSTAT3-TA-Luc or pTA-Luc vector (Clontech Corp. made, USA) was transfected into the ES cells. On the other hand, 0.1 μg of the internal control, pRL-TK vector (Promega Corp. made, USA) was transfected at the same time for each well. Following culturing at 37° C. in 5% CO2 incubator for 4 hours, the medium was sucked and washed twice with PBS and, then, the 500 μL-ES assay medium was added to each well. […] Next, by using PicaGene Dual SeaPansy (Toyo Ink, Japan) by the attached protocol, the luminescence signal generated by the luciferase reporter enzyme of each cell was measured.
A general note: In a reporter assay the amount or activity of a reporter protein is the signal.

Test [2] concerns mouse embryonic stem cell line D3ES cell. Kind of test: Alkaline phosphatase staining 1. The format is cell-based. As to the method: For the D3ES cell obtained by the preparation of the mouse ES cell as described in (3) above, 3×10^2 to 1×10^3 cells per well was seeded in […] of the ES cell assay medium in a well of a 96-well cell culture dish (Falcon Corp. made, Cat. No. 3072, USA) coated previously with a 0.1% aqueous gelatin solution. A 10 μl of the differentiation inhibiting agent (A,B,C,D,E,F: A to D were ASINEX Corp. (Russia) made and E to F were purchased from PHARMEKS Corp. (Russia)) of the present invention or ESGRO, which was dissolved in dimethylsulfoxide (DMSO), or water, or the mixture, was added to each well to make 0.4 to 40 μg/mL, and culturing was carried out at 37° C. in 5% CO2 incubator for 7 days. DMSO added to the medium was adjusted to make a final concentration of 0.1% or lower. On the other hand, to a control well was added only DMSO to make the final concentration of 0.1%.
The ES cells were stained by using an alkaline phosphatase kit (SIGMA Diagnostic Corp. made, Cat. No. 86-R). […]

Test [3] deals with STAT3. As to the kind of experiment: STAT3 activation assay 1 (pSTAT3-TA-Luc luciferase reporter). The format is cell-based, mouse. The conditions noted are these: D3ES cells, agent 0.4 to 40 μg/mL or ESGRO 10 to 10,000 unit/mL, 6 to 24 hours, FIG. 5. As for the experimental part: For the D3ES cells prepared by the method described in (3) preparation of a mouse ES cell of Example 1, 1×10^5 cells in 500 μL ES medium were seeded in a well of a 24-well cell culture dish (Falcon Corp. made, Cat No. 3047, USA) coated previously with a 0.1% aqueous gelatin solution, followed by culturing at 37° C. in 5% CO2 incubator for 12 hours to 24 hours. Next, by using LipofectAMINE 2000 (Invitrogen Corp. made, USA) by a protocol attached to the product, 0.9 μg per 1 well of pSTAT3-TA-Luc or pTA-Luc vector (Clontech Corp. made, USA) was transfected into the ES cells. In addition, 0.1 μg of an internal control, pRL-TK vector (Promega Corp. made, USA) was transfected at the same time for each well. Following culturing at 37° C. in 5% CO2 incubator for 4 hours, the medium was sucked, and the cells were washed twice with PBS and, then, a 500 μL-ES assay medium was added to each well. […] Next, by using PicaGene Dual SeaPansy (Toyo Ink made, Japan) by the attached protocol, a luminescence signal generated by a luciferase reporter enzyme of each cell was measured.

In the case of `CC(=O)c1ccc(/N=N/C(C(N)=O)=C2/NC(C)(C)Cc3ccccc32)cc1` [compound B, 2-(4-acetyl-phenylazo)-2-(3,3-dimethyl-3,4-dihydro-2H-isoquinoline-1-ylidene)-acetamide], the “expression of the luciferase reporter enzyme by pSTAT3-TA-Luc” value in test [1] and in test [3] was “did not induce the expression of the reporter enzyme” throughout. Besides, the “undifferentiated colony formation compared with ES cells cultured in the presence of ESGRO (positive control)” value in test [2] (compound 4 μg/mL, ESGRO 1000 units/mL) was “form an undifferentiated colony equal to that of the ES cells cultured in the presence of ESGRO”. Besides, the “alkaline phosphatase staining in comparison with ES cells cultured in the absence of ESGRO” value in test [2] (compound B 4 μg/mL, FIG. 4) was “stained significantly more densely”.

The values are drawn from patent publication US8883504B2, “Cell differentiation suppressing agent, method of culturing cells using the same, culture solution, and cultured cell line” (Asahi Kasei Kabushiki Kaisha, priority 2003, dated 2014).
